The record followed here is patent US20220409629A1, “BENZODIAZEPINE DERIVATIVES FOR TREATING A RESPIRATORY SYNCYTIAL VIRUS (RSV) INFECTION” (priority 2019, published 2022).

Bounds are passed on as bounds.

One data set relates to RSV A2. Kind of data set: RSV plaque reduction assay. The conditions noted are these: human respiratory syncytial virus, HepG2; Hep-G2 cells, RSV A2, mean of at least two experiments. Type of data set: cell-based, respiratory syncytial virus (RSV). The essentials:
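RSV A2 (100 PFU/well) premixed with eight serial compound dilutions, added to confluent Hep-G2 monolayers for 2 h at 37° C, then held 2 days under CMC overlay containing compound (DMEM, 2% FBS). Plaques immunostained (HRP/TrueBlue) and counted; EC50 is 50% reduction versus virus control from 4-parameter fit, mean of ≥2 experiments.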
(Plaque reduction counts the foci of infection that form in a cell layer.)

A further data set can be described thus: Cell cytotoxicity CC50. The conditions noted are these: human; mean of at least two experiments. Type of data set: cell-based.
Data set [1] in a line: Liver microsomal stability, rat. The conditions noted are these: pH 7.4; rat liver microsomes, 0.5 mg/mL protein, 1 μM compound, NADPH; >80% remaining at 45 min denoted >140; read-out: Liver Microsomal Stability: t1/2 (min); rat. The format is in vitro ADME. The essentials:
(§1)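 Pooled liver microsomes (0.5 mg/mL protein) in 0.1 M phosphate pH 7.4 with 1 μM compound (0.25% DMSO), started with 1 mM NADPH at 37° C; sampled 0-45 min, minus-NADPH control 45 min. LC-MS/MS depletion slope gave t1/2 and CLint.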

Data set [2] in a line: Liver microsomal stability, dog. As to conditions: pH 7.4; dog liver microsomes, 0.5 mg/mL protein, 1 μM compound, NADPH; >80% remaining at 45 min denoted >140; read-out: Liver Microsomal Stability: t1/2 (min); dog. The format is in vitro ADME. An outline of the steps: as §1
Data set [3] can be described thus: Liver microsomal stability, human. Type of data set: in vitro ADME. The conditions noted are these: pH 7.4; human liver microsomes, 0.5 mg/mL protein, 1 μM compound, NADPH; >80% remaining at 45 min denoted >140; read-out: Liver Microsomal Stability: t1/2 (min); human. An outline of the steps: as §1
(In general: Liver microsomes are vesicles of endoplasmic reticulum, rich in cytochrome P450 enzymes.)

The nature of data set [4]: Liver hepatocyte stability, rat. As to conditions: rat hepatocytes, 3 μM compound, 60 min, >80% remaining at 60 min denoted >186, read-out: Liver Hepatocyte Stability: t1/2 (min). The format is in vitro ADME. On the procedure: (§2) Cryopreserved pooled hepatocytes were purchased from a reputable commercial supplier and stored in liquid nitrogen prior to use. Williams E media supplemented with 2 mM L-glutamine and 25 mM HEPES and test compound (final substrate concentration 3 μM; final DMSO concentration 0.25%) are pre-incubated at 37° C. prior to the addition of a suspension of cryopreserved hepatocytes (final cell density 0.5×10^6 viable cells/mL in Williams E media supplemented with 2 mM L-glutamine and 25 mM HEPES) to initiate the reaction. The final incubation volume is 500 μL. Two control compounds were included with each species, alongside appropriate vehicle control. The reactions are stopped by transferring 50 μL of incubate to 100 μL acetonitrile containing internal standard at the appropriate time points. Samples were removed at 6 time points (0, 5, 15, 30, 45 and 60 min) over the course of a 60 min experiment. The termination plates are centrifuged at 2500 rpm at 4° C. for 30 min to precipitate the protein. Following protein precipitation, the sample supernatants were combined in cassettes of up to 4 compounds and analysed using generic LC-MS/MS conditions. From a plot of ln peak area ratio (compound peak area/internal standard peak area) against time, the gradient of the line is determined. Subsequently, half-life (t1/2) and intrinsic clearance (CLint) were calculated.

A short description of data set [5]: Liver hepatocyte stability, dog. Type of data set: in vitro ADME. The conditions noted are these: dog hepatocytes, 3 μM compound, 60 min, >80% remaining at 60 min denoted >186, read-out: Liver Hepatocyte Stability: t1/2 (min). The protocol:
as §2

Data set [6] can be described thus: Liver hepatocyte stability, human. Type of data set: in vitro ADME. The conditions noted are these: human hepatocytes, 3 μM compound, 60 min, >80% remaining at 60 min denoted >186, read-out: Liver Hepatocyte Stability: t1/2 (min). The protocol:
as §2

A short description of data set [7]: Rat pharmacokinetics in vivo. As to conditions: male Sprague Dawley rats. The protocol:
The pharmacokinetics of compounds were studied in vivo in rats at doses of 1 mg/kg (IV) and 10 mg/kg (PO).
Male rats (Sprague Dawley) surgically prepared with a jugular vein cannula were treated with experimental compounds via intravenous administration (IV; n=3; 1 mg/kg) or oral administration (PO; n=3; 10 mg/kg). Compounds were formulated as a solution in 40:60 dimethylacetamide:saline (IV administration), a suspension in 1% methyl cellulose (viscosity: 15 cP), 0.1% Tween80 in water (PO administration: Example 3), a solution in 10% DMSO/10% Cremaphor/80% water (PO administration: Examples 4, 11, 21, 23, 25, 26, 32) or a solution in 10% DMSO/20% Cremaphor/70% water (PO administration: Examples 19, 20, 22, 24, 30). […] Serial blood samples were collected via the cannula at 0.02, 0.08, 0.25, 0.5, 1, 2, 4, 6, 8 and 24 h post IV dosing of compound, and at 0.08, 0.25, 0.5, 1, 2, 4, 6, 8 and 24 h post oral dosing of compound, and plasma was prepared by centrifugation and stored immediately at −80° C. Samples were subsequently thawed, prepared for analysis by protein precipitation with acetonitrile, and analysed by tandem LCMS using electrospray ionisation using a matrix-matched calibration curve. PK parameters were calculated from the resulting data.

In the data set with RSV A2, `CCNc1ccc(-c2c(C(=O)N[C@H]3N=C(c4ccccc4)c4ccccc4NC3=O)cnn2C2CCOCC2)c(F)n1` [Example 42, 5-[6-(Ethylamino)-2-fluoropyridin-3-yl]-1-(oxan-4-yl)-N-[(3S)-2-oxo-5-phenyl-1,3-dihydro-1,4-benzodiazepin-3-yl]pyrazole-4-carboxamide] yielded an EC50 of 41 nM. In addition, the CC50 in the data set “Cell cytotoxicity CC50” is more than 25000 nM. For the same compound, the half-life in data set [1] is 85.8 min; in data set [2], 480 min; in [3], 194 min; in data set [4] it was 72.3 min; in data set [5], 100 min; in data set [6], 421 min.

As for `CC(C)Nc1ccc(-c2c(C(=O)N[C@H]3N=C(c4ccccc4)c4ccccc4NC3=O)cnn2C2CCOCC2)c(F)n1` [Example 23, 5-[2-Fluoro-6-(propan-2-ylamino)pyridin-3-yl]-1-(oxan-4-yl)-N-[(3S)-2-oxo-5-phenyl-1,3-dihydro-1,4-benzodiazepin-3-yl]pyrazole-4-carboxamide], the 50% effective concentration (EC50) with RSV A2 is 50 nM. Also, the cytotoxic concentration (CC50) in “Cell cytotoxicity CC50” is more than 25000 nM. For the same compound, the half-life is 96.7 min in data set [4]; 127 min in [5]; more than 186 min in [6]; 2.2 h in data set [7] (rat, in vivo, IV 1 mg/kg, read-out: IV t½ (converted)); 3 h in data set [7] (rat, in vivo, PO 10 mg/kg, read-out: PO t½ (converted)). Moreover, in [7] (8 h, doses 1 mg/kg (IV) and 10 mg/kg (PO)), the “C 8 h” value was 146 ng/mL. The compound also returned a Vd in data set [7] (rat, in vivo, IV 1 mg/kg) of 1.7 L/kg. Further, in data set [7] (rat, in vivo, IV 1 mg/kg), the clearance is 12.2 mL/min/kg. The same compound had a bioavailability in data set [7] (rat, in vivo, IV 1 mg/kg, PO 10 mg/kg) of 34.7%. Further, in [7] (rat, in vivo, PO 10 mg/kg, read-out: PO AUClast), the AUC(0-t) is 4630 ng·h/mL. In data set [7] (rat, in vivo, doses 1 mg/kg (IV) and 10 mg/kg (PO)), the Cmax was 930 ng/mL.

In the case of `CCNc1ccc(-c2c(C(=O)N[C@H]3N=C(c4ccccc4)c4ccccc4NC3=O)cnn2CC)c(F)n1` [Example 2, 1-Ethyl-5-[6-(ethylamino)-2-fluoropyridin-3-yl]-N-[(3S)-2-oxo-5-phenyl-1,3-dihydro-1,4-benzodiazepin-3-yl]pyrazole-4-carboxamide], in the data set with RSV A2, the concentration for a half-maximal effect (EC50) came out at 88 nM. Also, the CC50 in “Cell cytotoxicity CC50” was more than 25000 nM. The figures for the half-life in data set [1], in data set [2] and in data set [3] were 30.3 min, 23.9 min and 44.4 min, respectively.

As for `CCNc1cnc(-c2c(C(=O)N[C@H]3N=C(c4ccccc4)c4cccc(F)c4NC3=O)cnn2CC)c(F)c1` [Example 13, 1-Ethyl-5-[5-(ethylamino)-3-fluoropyridin-2-yl]-N-[(3S)-9-fluoro-2-oxo-5-phenyl-1,3-dihydro-1,4-benzodiazepin-3-yl]pyrazole-4-carboxamide], the EC50 in the data set with RSV A2 was 68 nM. For the same compound, the CC50 in the data set “Cell cytotoxicity CC50” is more than 25000 nM. The half-life in data set [1] worked out at 9.6 min; in data set [2], 35.6 min; in [3], 42.9 min.

In the data set with RSV A2, `CCn1ncc(C(=O)N[C@H]2N=C(c3ccccc3)c3ccccc3NC2=O)c1-c1ccc(NC2CCC2)nc1F` [Example 5, 5-[6-(Cyclobutylamino)-2-fluoropyridin-3-yl]-1-ethyl-N-[(3S)-2-oxo-5-phenyl-1,3-dihydro-1,4-benzodiazepin-3-yl]pyrazole-4-carboxamide] showed an EC50 of 87 nM. In the data set “Cell cytotoxicity CC50”, the cytotoxic concentration (CC50) was more than 25000 nM. In addition, the half-life was 47.4 min in data set [1], 45.7 min in data set [2] and 50.1 min in data set [3].

For the compound `CCn1ncc(C(=O)N[C@H]2N=C(c3ccccc3)c3cccc(F)c3NC2=O)c1-c1ncc(NC(C)C)cc1F` [Example 17, 1-Ethyl-N-[(3S)-9-fluoro-2-oxo-5-phenyl-1,3-dihydro-1,4-benzodiazepin-3-yl]-5-[3-fluoro-5-(propan-2-ylamino)pyridin-2-yl]pyrazole-4-carboxamide], it took 52 nM to reach a half-maximal effect with RSV A2 (EC50). Besides, in the data set “Cell cytotoxicity CC50”, the CC50 is more than 25000 nM. Besides, the half-life turned out to be 318 min in [1], 68.9 min in [2] and 120 min in data set [3].

For the compound `O=C(N[C@H]1N=C(c2ccccc2)c2ccccc2NC1=O)c1cnn(C2CCOCC2)c1-c1ccc(C2CC2)cc1F` [Example 43, 5-(4-Cyclopropyl-2-fluorophenyl)-1-(oxan-4-yl)-N-[(3S)-2-oxo-5-phenyl-1,3-dihydro-1,4-benzodiazepin-3-yl]pyrazole-4-carboxamide], in the data set on RSV A2, a half-maximal response (EC50) required 48 nM. Further, the half-maximal cytotoxic concentration (CC50) in the data set “Cell cytotoxicity CC50” was more than 25000 nM. Also, the half-life in data set [1] came out at 44.9 min; in data set [2], 161 min; in [3], 170 min.

`O=C(N[C@H]1N=C(c2ccccc2)c2cccc(F)c2NC1=O)c1cnn(C2CCOCC2)c1-c1ccc(C2CC2)cc1F` [Example 44, 5-(4-Cyclopropyl-2-fluorophenyl)-N-[(3S)-9-fluoro-2-oxo-5-phenyl-1,3-dihydro-1,4-benzodiazepin-3-yl]-1-(oxan-4-yl)pyrazole-4-carboxamide]: the 50% effective concentration (EC50) with RSV A2 is 48 nM. Further, the CC50 in the data set “Cell cytotoxicity CC50” was more than 25000 nM. Besides, the results for the half-life in data set [1], in [2] and in data set [3] were 55.9 min, 90 min and 201 min, respectively.

The compound `CC(C)(C)n1cc(C(=O)N[C@H]2N=C(c3ccccc3)c3ccccc3NC2=O)c(-c2ccc(NC3CC3)nc2F)n1` [Example 29, 1-tert-butyl-3-[6-(cyclopropylamino)-2-fluoropyridin-3-yl]-N-[(3S)-2-oxo-5-phenyl-1,3-dihydro-1,4-benzodiazepin-3-yl]pyrazole-4-carboxamide] had a concentration giving a half-maximal response (EC50) in the data set on RSV A2 of 54 nM. Besides, the cytotoxic concentration (CC50) in the data set “Cell cytotoxicity CC50” is more than 25000 nM. Moreover, the half-life in data set [1] turned out to be 45.2 min; in data set [2], 44 min; in data set [3] it was 73.9 min.

For `O=C(N[C@H]1N=C(c2ccccc2)c2cccc(F)c2NC1=O)c1cnn(C2CCOCC2)c1-c1ccc(C2CC2)nc1F` [Example 49, 5-(6-Cyclopropyl-2-fluoropyridin-3-yl)-N-[(3S)-9-fluoro-2-oxo-5-phenyl-1,3-dihydro-1,4-benzodiazepin-3-yl]-1-(oxan-4-yl)pyrazole-4-carboxamide], the response with RSV A2 was half-maximal at 100 nM (EC50). This compound also gave a CC50 in the data set “Cell cytotoxicity CC50” of more than 25000 nM. For the same compound, the half-life in data set [1] came out at 73.4 min; in [2], 110 min; in [3] it was 181 min.

Usually EC50 stands for the concentration needed to bring the measured effect to its halfway point. The low end stands for an effect from little substance, the high end for a need for much substance. The term CC50 denotes the concentration that lowers cell viability or growth by half. Read a low CC50 as harm at low concentration. Usually Vd stands for the apparent volume that relates the amount in the body to the concentration in plasma or blood. A low value points to confinement near the circulation. As a reminder, the clearance is the volume of plasma or blood freed of the substance per unit of time. Broadly, the bioavailability is dose-corrected exposure relative to a reference, in per cent. Read a high bioavailability as much systemic uptake. Broadly, the Cmax is the maximum level reached in the sampled fluid or tissue.
